This passage reports Ki results from patent publication US7407968B2, “Compounds” (AstraZeneca AB, priority 2003, dated 2008).

Read-outs that look alike come from different tables or passages of the source.

The target of experiment [1] is Human CB1 receptor from Receptor Biology (hCB1) (Homo sapiens, UniProt P21554). Briefly: hCB1 receptor binding (3H-CP55,940 displacement).
Experiment [2] concerns the target T1, human CB2 receptor from BioSignal (hCB2) (Homo sapiens, UniProt P34972).
T1 construct: purchased BioSignal
The experiment in a line: hCB2 receptor binding (3H-CP55,940 displacement).

[3] abbreviates: hCB1 membranes, 3H-CP55,940 radioligand, Ki=IC50/(1+[rad]/Kd), read-out: hCB1 Ki.

T1 sequence (P34972 whole entry): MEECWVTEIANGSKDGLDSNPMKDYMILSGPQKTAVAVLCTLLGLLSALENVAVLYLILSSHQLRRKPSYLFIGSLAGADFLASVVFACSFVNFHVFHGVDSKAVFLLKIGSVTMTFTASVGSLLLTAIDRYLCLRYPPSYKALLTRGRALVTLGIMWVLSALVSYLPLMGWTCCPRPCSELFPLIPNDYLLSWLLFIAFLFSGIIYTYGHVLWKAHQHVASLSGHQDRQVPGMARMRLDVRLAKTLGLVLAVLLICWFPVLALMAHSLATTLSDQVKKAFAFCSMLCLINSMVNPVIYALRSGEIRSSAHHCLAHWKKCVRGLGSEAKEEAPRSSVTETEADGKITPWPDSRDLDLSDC
Chain of Human CB1 receptor from Receptor Biology (hCB1) (P21554 whole entry): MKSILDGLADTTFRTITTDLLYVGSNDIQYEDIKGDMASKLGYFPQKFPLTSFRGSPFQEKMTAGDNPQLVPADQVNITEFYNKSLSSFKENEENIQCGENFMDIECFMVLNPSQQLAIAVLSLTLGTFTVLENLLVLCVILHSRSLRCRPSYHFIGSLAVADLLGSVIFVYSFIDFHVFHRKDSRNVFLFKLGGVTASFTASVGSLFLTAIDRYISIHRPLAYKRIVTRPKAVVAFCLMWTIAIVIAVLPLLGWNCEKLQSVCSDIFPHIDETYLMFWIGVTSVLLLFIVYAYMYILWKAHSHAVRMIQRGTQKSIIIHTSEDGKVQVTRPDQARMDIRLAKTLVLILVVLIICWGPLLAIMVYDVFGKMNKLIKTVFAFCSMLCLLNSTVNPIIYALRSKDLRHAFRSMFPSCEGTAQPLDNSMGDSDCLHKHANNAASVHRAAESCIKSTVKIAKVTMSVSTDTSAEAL

Turning to `CCOc1ccc(Cc2nc3cc(C(=O)N(CC(F)(F)F)CC(F)(F)F)ccc3n2CCC(C)C)cc1` [Compound 1], the Ki in experiment [1] (setting [3]) turned out to be 2800 nM; in experiment [2] (hCB2 Ki (nM)), 3.1 nM. Regarding `CCOc1ccc(Cc2nc3cc(C(=O)N(CC(F)(F)F)CC(F)(F)F)ccc3n2CC2CC2)cc1` [Compound 2], the Ki in experiment [1] (hCB1 Ki (nM)) amounted to 5080 nM; in experiment [2] (read-out: hCB2 Ki), 5.6 nM. For the compound `CCOc1ccc(Cc2nc3cc(C(=O)N(CC(F)(F)F)CC(F)(F)F)ccc3n2CC2CCCCC2)cc1` [Compound 3], the Ki in experiment [1] (hCB1 Ki (nM)) worked out at 84.8 nM; in experiment [2] (hCB2 Ki (nM)), 0.8 nM. On to `CCOc1ccc(Cc2nc3cc(C(=O)N(CC(F)(F)F)CC(F)(F)F)ccc3n2Cc2ccco2)cc1` [Compound 4], for which the Ki in experiment [1] (setting [3]) was 4690 nM. With `CCOc1ccc(Cc2nc3cc(C(=O)N(CC(F)(F)F)CC(F)(F)F)ccc3n2Cc2ccco2)cc1` [Compound 7], the Ki in experiment [1] (setting [3]) turned out to be 5530 nM. For `CCOc1ccc(Cc2nc3cc(C(=O)N(CC(F)(F)F)CC(F)(F)F)ccc3n2Cc2ccncc2)cc1` [Compound 8], the figures for the Ki in experiment [1] (setting [3]) and in experiment [2] (hCB2 Ki (nM)) were 5350 nM and 16.7 nM, respectively.

For the compound `CCOc1ccc(C(C)c2nc3cc(C(=O)N(CC(F)(F)F)CC(F)(F)F)ccc3n2Cc2ccncc2)cc1` (centres unmarked) [Compound 9], the inhibitory constant (Ki) in experiment [1] (setting [3]) was 5570 nM; in experiment [2] (hCB2 membranes, 3H-CP55,940 radioligand, Ki=IC50/(1+[rad]/Kd), read-out: hCB2 Ki), 165 nM.

Regarding `CCOc1ccc(Cc2nc3cc(C(=O)N(CC(F)(F)F)CC(F)(F)F)ccc3n2CC2CCOCC2)cc1` [Compound 13], the Ki amounted to 565 nM in experiment [1] (hCB1 Ki (nM)) and 5.4 nM in experiment [2] (hCB2 Ki (nM)). The corresponding values for `CCOc1ccc(Cc2nc3cc(C(=O)N(CC(F)(F)F)CC(F)(F)F)ccc3n2C[C@H]2CCCO2)cc1` [Compound 14] are 5750 nM and 14.8 nM. The corresponding values for `CCOc1ccc(Cc2nc3cc(C(=O)N(CC(F)(F)F)CC(F)(F)F)ccc3n2C[C@@H]2CCCO2)cc1` [Compound 15] are 5750 nM and 9.6 nM. Consider `CCOc1ccc(Cc2nc3cc(C(=O)N(CC(F)(F)F)CC(F)(F)F)ccc3n2CC2CCCCO2)cc1` (centres unmarked) [Compound 16], for which the figures for the Ki in experiment [1] (setting [3]) and in experiment [2] (hCB2 Ki (nM)) were 1410 nM and 3.3 nM, respectively. On to `CCOc1ccc(Cc2nc3cc(C(=O)N(CC(F)(F)F)CC(F)(F)F)ccc3n2CC2CCOCC2)nc1` [Compound 20], for which the Ki in experiment [1] (hCB1 Ki (nM)) came to 2730 nM; in experiment [2] (hCB2 Ki (nM)), 11.2 nM. In the same order, the values of `CCOc1ccc(Cc2nc3cc(C(=O)N(CC(F)(F)F)CC(F)(F)F)ccc3n2CCC(C)C)nc1` [Compound 21] are 5430 nM and 15.4 nM. The corresponding values for `CCOc1ccc(Cc2nc3cc(C(=O)N(CC(F)(F)F)CC(F)(F)F)ccc3n2CC2CCC2)cc1` [Compound 25] are 1560 nM and 2 nM. For `CCOc1ccc(Cc2nc3cc(C(=O)N(CC(F)(F)F)CC(F)(F)F)ccc3n2CC2CCC2)nc1` [Compound 26], the Ki in experiment [1] (hCB1 Ki (nM)) is 5530 nM; in experiment [2] (hCB2 Ki (nM)), 6.6 nM.

Take `CCOc1ccc(Cc2nc3cc(C(=O)N(CC(F)(F)F)CC(F)(F)F)ccc3n2CC2CCCC2)nc1` [Compound 27]: the Ki in experiment [1] (hCB1 Ki (nM)) amounted to 1360 nM; in experiment [2] (hCB2 Ki (nM)), 3.2 nM. For `CCOc1ccc(Cc2nc3cc(C(=O)N(CC(F)(F)F)CC(F)(F)F)ccc3n2Cc2ccoc2)nc1` [Compound 29], the values for the Ki in experiment [1] (setting [3]) and in experiment [2] (hCB2 Ki (nM)) were 5810 nM and 68.7 nM, respectively. For `CCOc1ccc(Cc2nc3cc(C(=O)N(CC(F)(F)F)CC(F)(F)F)ccc3n2CC2CCCCC2)nc1` [Compound 30], the Ki in experiment [1] (hCB1 Ki (nM)) was 455 nM; in experiment [2] (hCB2 Ki (nM)) it was 3.1 nM. For the compound `CC(C)Oc1ccc(Cc2nc3cc(C(=O)N(CC(F)(F)F)CC(F)(F)F)ccc3n2CC2CCCCC2)nc1` [Compound 32], the Ki came out at 142 nM in experiment [1] (setting [3]) and 2.7 nM in experiment [2] (hCB2 Ki (nM)). In the same order, the values of `CCOc1ccc(Cc2nc3cc(C(=O)N(CC(F)(F)F)CC(F)(F)F)ccc3n2Cc2ccsc2)nc1` [Compound 36] are 5750 nM and 14 nM.

The Ki is the dissociation constant of the complex between target and ligand, obtained from inhibition or displacement.
